According to patent publication US7632807B2, “Cyclosporin alkynes and their utility as pharmaceutical agents” (Albany Molecular Research, Inc., priority 2004, dated 2009):
In brackets after ≈: the same amount, converted by molar mass. Entries after “also recorded” stand apart in the source; their conditions may differ.

Tests used:
[1] = literature value (Rich et al. 1990); cited from earlier work
[2] = system: concanavalin A-stimulated murine splenocytes; test: Concanavalin A (ConA)-stimulated murine splenocyte assay; type: cell-based, mouse (BALB/c)
Protocol: Concanavalin A—Stimulated Splenocyte Assay
Male BALB/c mice, at 5 to 7 weeks of age, were sacrificed by CO2 inhalation. Spleens were removed and dissociated by pushing through a nylon cell strainer. The splenocytes were washed in RPMI 1640/5% fetal calf serum (FCS) and pelleted at 400×g. Red blood cells were then lysed by resuspending the cell pellet in ACK lysis buffer (150 mM NH4Cl, 1 mM KHCO3, 0.1 mM EDTA, 3 mL per spleen) for 10 min at room temperature. After pelleting at 400×g, the cells were washed by resuspending in RPMI 1640/5% FCS and repelleting. The cell pellet was resuspended in RPMI 1640/5% FCS and again passed through a cell strainer to remove cell aggregates. The cells were then counted and adjusted to 2×10^6 cells/ml in RPMI 1640/10% FCS/[…] 2-mercaptoethanol. Cell viability was assessed by Trypan blue staining. […] The cells were cultured in a 37° C. CO2 incubator for 2 days and then pulsed with 1 μCi of [^3H]thymidine for 6 hours. Cells were harvested onto filtermats with a TomTec 96 well plate harvester and lysed with H2O. The filtermat and scintillation fluid were sealed in a plastic sleeve. [^3H]thymidine incorporation was measured with a Wallac Trilux plate counter. Initial screens were done at a fixed value of 100 ng/ml test compound. IC50s were calculated from 7 point concentration-response curves using graphPad software.

Structure (SMILES)	relative immunosuppressive activity, compared to cyclosporin A [1] [%]	immunosuppressive potency compared to cyclosporin A ([2]; FIG. 1, ConA-stimulated murine splenocyte assay)	IC50 ([2]; novel cyclosporin alkyne analogue, ConA-stimulated BALB/c splenocytes, [3H]thymidine incorporation, 7 point concentration-response curves) [mg/L]
CC#CC[C@@H](C)[C@@H](O)[C@H]1C(=O)N[C@@H](CC)C(=O)N(C)CC(=O)N(C)[C@@H](CC(C)C)C(=O)N[C@@H](C(C)C)C(=O)N(C)[C@@H](CC(C)C)C(=O)N[C@@H](C)C(=O)N[C@H](C)C(=O)N(C)[C@@H](CC(C)C)C(=O)N(C)[C@@H](CC(C)C)C(=O)N(C)[C@@H](C(C)C)C(=O)N1C [known cyclosporin alkyne]	10		
C#CC#CC[C@@H](C)[C@@H](O)[C@H]1C(=O)N[C@@H](CC)C(=O)N(C)CC(=O)N(C)[C@@H](CC(C)C)C(=O)N[C@@H](C(C)C)C(=O)N(C)[C@@H](CC(C)C)C(=O)N[C@@H](C)C(=O)N[C@H](C)C(=O)N(C)[C@@H](CC(C)C)C(=O)N(C)[C@@H](CC(C)C)C(=O)N(C)[C@@H](C(C)C)C(=O)N1C [Example 25, cyclosporine diyne]		enhanced or similar potency in immunosuppression; also recorded: two times more potent over cyclosporin A	0.012 (≈ 9.91 nM)
